{"source": "patent US6395740B1", "about": "“Calcitonin mimetics” (ZymoGenetics, Inc., priority 1997, dated 2002)", "key": {"[1]": {"test_system": "PTH-induced bone resorption in mouse calvaria", "test": "Calvarial assay to determine calcitonin escape", "type": "cell-based", "settings": "for visual observation of the calvaria (resorption): final time point (98 hours)", "procedure": "Calvaria from 4-day old neonatal CD-1 mice (pregnant mice received from Charles River Laboratories) were trimmed with fine-tipped scissors to leave the parietal regions, including the sagittal suture. These trimmed bones were placed singly per well into 6-well culture cluster plates (Costar) with 1 mL/well of growth medium, Basel Medium (Eagle's with Earle's salts (GIBCO BRL, Gaithersburg, Md.)) containing 4.5 g/L glucose, 0.29 mg/mL L-glutamine, 1 mM sodium pyruvate, 15% heat-inactivated horse serum, antibiotics (penicillin-G 50 μg/mL, streptomycin 50 μg/mL, and neomycin 100 μg/mL) and containing 5 nM parathyroid hormone (PTH) 1-34 (Sigma), and rocked gently (RedRocker™) at 37° C. in a 5% CO2 humidified incubator for 17.5 hours preincubation. The concentration of PTH was chosen to insure maximum resorption. Calvaria designated as controls were pre-incubated in media without PTH.\nFollowing preincubation, medium was removed and replaced with 1 mL/well of growth medium, as above, containing 20 or 30 μg/mL of the calcitonin mimetic 850-0231 in DMSO (final assay concentration of DMSO less than or equal to 1%), and compared with human calcitonin (hCT) tested at 0.5, 1.0, 5.0, […] All control wells contained a final assay concentration of DMSO equal to that present in the calcitonin mimetic treated wells.\nFive bones were included in each sample group. Bones were incubated for a total of 98 hours. Time points were taken at 4, 8, 11, 24, 50.5, 72.5 and 98 hours. At each time point the media containing PTH was removed and fresh dilutions of compound in media were added to the calvaria. After the media was removed, total calcium measurements were made using a Nova 7/7+7 Electrolyte Analyzed (Nova Biomedical) according to the manufacturer's specifications. Induction of bone resorption by PTH is seen as an increase in the concentration of calcium in the growth medium due to degradation of the bone matrix.\nA second calvaria bone resorption/escape assay was performed as described above with time points at 4, 8, 12, 16, 24, 49 and 73 hours. […] Histology was done on the PTH-treated and the 30 μg/mL calcitonin mimetic-treated calvaria.\nA third calvaria bone resorption/escape assay was performed as described above with the following modifications. The calcitonin mimetic was tested at 5, 10 and 20 μg/mL. PTH was used at 10 nM to insure maximal resorption, hCT was tested at 2 nM and 8 nM and sCT was not included. Calvaria were pretreated with PTH for 19.75 hours. BrdU (bromodeoxyuridine, final concentration 10 μM) was added to the growth media for the final 17.5 hours, to identify proliferating cells. The lack of toxicity of 850-0231 will be verified by quartitating the number of proliferating BudU cells in histological sections of the calvaria. Time points were taken at 4, 8, 11, 24.5, 48 and 77 hours. A Novo CRT 10+ electrolyte analyzer (Nova Biomedical) was used to analyze the time point samples.\nAt the final time point, visual observations were made and photos taken to note the extent of resorption, and migration from the calvarial cells as a measure of toxicity. Again, human calcitonin lost its inhibitory effect between hours 11 and 24 (Table 5). The calvaria treated with the mimetic at 5 and 10 μg/mL also lost inhibitory effect between 11 and 24 hours."}, "[2]": {"test_system": "osteoclasts in PTH-treated mouse calvariae", "test": "Calvaria histology: osteoclast number and size", "type": "cell-based", "settings": "PTH 1-34 treated mouse calvariae", "from_the_text": "To confirm the findings in the calvarial bone resorption assay employing calcium release from culture mouse calvariae, selected bones were fixed in 10% neutral buffered formalin and demineralized in 5% formic acid with 5% formalin. The bones were dehydrated through an ascending series of ethanol concentrations, infiltrated in glycol methacrylate, and embedded using a JB-4 embedding kit (PolySciences, warrington, Pa.) (Liu et al., J. Bone Mineral Res. 5:973-82 (1990)). Cross sections of calvariae cut at 5 μm were obtained and stained for tartrate-resistant acid phosphatase (TRAP) activity and counterstained with merhyl green and thionin for cell morphology (Laiu et al., supra). Osteociasts were identified by TRAP stain, multinucleation, large cell size, and irregular cell shape. The number of osteoclasts were counted from endocranial and ectocranial bone surfaces and expressed as number/mm perimeter. The size of all the osteoclasts counted was also measured using a Bone Morphometry program (Liu et al., supra; Bain, et al., J. Bone Miner. Res. 8:435-42 (1993)). […]\nCalcitonin mimetic compounds were evaluated in a similar fashion for their ability to suppress PTH-induced increases in osteoclast number and size. Cell toxicity (or death) was also evaluated by the appearance of pyknotic nuclei in a small number of bone cells. […]"}, "[3]": {"test": "Induction of hypocalcemia in rats", "type": "in vivo", "settings": "weanling male rats, tail vein, 0.5, 2.5, 5, 50 and 100 ng/rat, one hour", "procedure": "This assay is based on the in vivo acute effect of calcitonin on osteoclasts, which causes rapid retraction of osteoclass from bone surface (typically within 30 minutes) and which results in decreased bone resorption. See Mills, et al., in Endocrinology 1971—Proceedings of the Third International Symposium, Taylor (ed), Heinemann Medical, London, pp. 79-88 (1972) and Singer, et al., Clin. Endocrinol. 5(Supp):333s-340s (1976); the disclosures of which are incorporated herein by reference. The assay method was modified from the method described by Sturtridge and Kumar, Lancet 545:725-6, 1968, the disclosure of which is incorporated herein by reference.\nFor the assay of hypocalcemic activity, weanling male Holtzman Sprague-Dawley rats (22 days old) are infused with vehicle (PBS with 1 mM HCl and 0.1% BSA), calcitonin or calcitonin mimetics through the tail vein. One hour later, blood samples are collected by orbital sinus puncture to determine serum levels of calcium. A decrease in serum calcium indicates a hypocalcemic response. The hypocalcemic response is dose-dependent as determined using salmon calcitonin (0.5, 2.5, 5, 50 and 100 ng/rat) in this model."}, "[4]": {"settings": "TPTX rats, co-administration with PTH, two days; cited from earlier work"}}}
{"substance": "human calcitonin", "values": [{"measurement": "time after which inhibitory effect on resorption was lost (escape)", "setting": "[1]; first assay, PTH 5 nM", "value": "approximately 24 hours"}, {"measurement": "Cumulative Total Calcium", "setting": "[1]; first assay, PTH 5 nM, hCT 10 nM, 4 hours", "value": 0.02, "unit": "mg %"}, {"measurement": "Cumulative Total Calcium", "setting": "[1]; first assay, PTH 5 nM, hCT 10 nM, 8 hours", "value": 0.02, "unit": "mg %"}, {"measurement": "Cumulative Total Calcium", "setting": "[1]; first assay, PTH 5 nM, hCT 10 nM, 11 hours", "value": "−0.02", "unit": "mg %"}, {"measurement": "Cumulative Total Calcium", "setting": "[1]; first assay, PTH 5 nM, hCT 10 nM, 24 hours", "value": 0.98, "unit": "mg %"}, {"measurement": "Cumulative Total Calcium", "setting": "[1]; first assay, PTH 5 nM, hCT 10 nM, 50.5 hours", "value": 4.96, "unit": "mg %"}, {"measurement": "Cumulative Total Calcium", "setting": "[1]; first assay, PTH 5 nM, hCT 10 nM, 72.5 hours", "value": 8.24, "unit": "mg %"}, {"measurement": "Cumulative Total Calcium", "setting": "[1]; first assay, PTH 5 nM, hCT 10 nM, 98 hours", "value": 12.26, "unit": "mg %"}, {"measurement": "visual observation of the calvaria (resorption)", "setting": "[1]; first assay", "value": "less resorption"}, {"measurement": "Cumulative Total Calcium", "setting": "[1]; second assay, PTH 5 nM, hCT 10 nM, 4 hours", "value": 0.10, "unit": "mg %"}, {"measurement": "Cumulative Total Calcium", "setting": "[1]; second assay, PTH 5 nM, hCT 10 nM, 8 hours", "value": "−0.04", "unit": "mg %"}, {"measurement": "Cumulative Total Calcium", "setting": "[1]; second assay, PTH 5 nM, hCT 10 nM, 12 hours", "value": "−0.06", "unit": "mg %"}, {"measurement": "Cumulative Total Calcium", "setting": "[1]; second assay, PTH 5 nM, hCT 10 nM, 16 hours", "value": 0.12, "unit": "mg %"}, {"measurement": "Cumulative Total Calcium", "setting": "[1]; second assay, PTH 5 nM, hCT 10 nM, 24 hours", "value": 0.92, "unit": "mg %"}, {"measurement": "Cumulative Total Calcium", "setting": "[1]; second assay, PTH 5 nM, hCT 10 nM, 49 hours", "value": 5.70, "unit": "mg %"}, {"measurement": "Cumulative Total Calcium", "setting": "[1]; second assay, PTH 5 nM, hCT 10 nM, 73 hours", "value": 10.60, "unit": "mg %"}, {"measurement": "Cumulative Total Calcium", "setting": "[1]; third assay, PTH 10 nM, hCT 2 nM, 4 hours", "value": 0.01, "unit": "mg %"}, {"measurement": "Cumulative Total Calcium", "setting": "[1]; third assay, PTH 10 nM, hCT 2 nM, 8 hours", "value": 0.10, "unit": "mg %"}, {"measurement": "Cumulative Total Calcium", "setting": "[1]; third assay, PTH 10 nM, hCT 2 nM, 11 hours", "value": 0.10, "unit": "mg %"}, {"measurement": "Cumulative Total Calcium", "setting": "[1]; third assay, PTH 10 nM, hCT 2 nM, 24.5 hours", "value": 1.22, "unit": "mg %"}, {"measurement": "Cumulative Total Calcium", "setting": "[1]; third assay, PTH 10 nM, hCT 2 nM, 48 hours", "value": 4.88, "unit": "mg %"}, {"measurement": "Cumulative Total Calcium", "setting": "[1]; third assay, PTH 10 nM, hCT 2 nM, 77 hours", "value": 9.55, "unit": "mg %"}, {"measurement": "Cumulative Total Calcium", "setting": "[1]; third assay, PTH 10 nM, hCT 8 nM, 4 hours", "value": 0.08, "unit": "mg %"}, {"measurement": "Cumulative Total Calcium", "setting": "[1]; third assay, PTH 10 nM, hCT 8 nM, 8 hours", "value": 0.24, "unit": "mg %"}, {"measurement": "Cumulative Total Calcium", "setting": "[1]; third assay, PTH 10 nM, hCT 8 nM, 11 hours", "value": 0.27, "unit": "mg %"}, {"measurement": "Cumulative Total Calcium", "setting": "[1]; third assay, PTH 10 nM, hCT 8 nM, 24.5 hours", "value": 1.45, "unit": "mg %"}, {"measurement": "Cumulative Total Calcium", "setting": "[1]; third assay, PTH 10 nM, hCT 8 nM, 48 hours", "value": 4.60, "unit": "mg %"}, {"measurement": "Cumulative Total Calcium", "setting": "[1]; third assay, PTH 10 nM, hCT 8 nM, 77 hours", "value": 9.74, "unit": "mg %"}, {"measurement": "PTH-induced increase in number and size of osteoclasts", "setting": "[2]", "value": "suppressed"}]}
{"substance": "salmon calcitonin", "values": [{"measurement": "hypocalcemic response (decrease in serum calcium)", "setting": "[3]", "value": "dose-dependent"}, {"measurement": "time after which inhibitory effect on resorption was lost (escape)", "setting": "[1]; first assay, PTH 5 nM", "value": "approximately 24 hours"}, {"measurement": "Cumulative Total Calcium", "setting": "[1]; first assay, PTH 5 nM, sCT 0.2 nM, 4 hours", "value": 0.10, "unit": "mg %"}, {"measurement": "Cumulative Total Calcium", "setting": "[1]; first assay, PTH 5 nM, sCT 0.2 nM, 8 hours", "value": 0.18, "unit": "mg %"}, {"measurement": "Cumulative Total Calcium", "setting": "[1]; first assay, PTH 5 nM, sCT 0.2 nM, 11 hours", "value": 0.34, "unit": "mg %"}, {"measurement": "Cumulative Total Calcium", "setting": "[1]; first assay, PTH 5 nM, sCT 0.2 nM, 24 hours", "value": 1.76, "unit": "mg %"}, {"measurement": "Cumulative Total Calcium", "setting": "[1]; first assay, PTH 5 nM, sCT 0.2 nM, 50.5 hours", "value": 6.12, "unit": "mg %"}, {"measurement": "Cumulative Total Calcium", "setting": "[1]; first assay, PTH 5 nM, sCT 0.2 nM, 72.5 hours", "value": 9.88, "unit": "mg %"}, {"measurement": "Cumulative Total Calcium", "setting": "[1]; first assay, PTH 5 nM, sCT 0.2 nM, 98 hours", "value": 13.22, "unit": "mg %"}, {"measurement": "visual observation of the calvaria (resorption)", "setting": "[1]; first assay", "value": "less resorption"}, {"measurement": "Cumulative Total Calcium", "setting": "[1]; second assay, PTH 5 nM, sCT 1 nM, 4 hours", "value": "−0.02", "unit": "mg %"}, {"measurement": "Cumulative Total Calcium", "setting": "[1]; second assay, PTH 5 nM, sCT 1 nM, 8 hours", "value": "−0.16", "unit": "mg %"}, {"measurement": "Cumulative Total Calcium", "setting": "[1]; second assay, PTH 5 nM, sCT 1 nM, 12 hours", "value": "−0.20", "unit": "mg %"}, {"measurement": "Cumulative Total Calcium", "setting": "[1]; second assay, PTH 5 nM, sCT 1 nM, 16 hours", "value": 0.08, "unit": "mg %"}, {"measurement": "Cumulative Total Calcium", "setting": "[1]; second assay, PTH 5 nM, sCT 1 nM, 24 hours", "value": 0.92, "unit": "mg %"}, {"measurement": "Cumulative Total Calcium", "setting": "[1]; second assay, PTH 5 nM, sCT 1 nM, 49 hours", "value": 6.02, "unit": "mg %"}, {"measurement": "Cumulative Total Calcium", "setting": "[1]; second assay, PTH 5 nM, sCT 1 nM, 73 hours", "value": 11.56, "unit": "mg %"}, {"measurement": "PTH-induced serum, bone and kidney changes", "setting": "[4]", "value": "attenuated"}]}
